One test deals with T1, AGTR1 (Homo sapiens, UniProt P30556).
T1 construct: host or cells: Pathunter CHO-K1 AGTR1 β-arrestin cell line (CHO-K1)
T1 sequence (P30556 1-359): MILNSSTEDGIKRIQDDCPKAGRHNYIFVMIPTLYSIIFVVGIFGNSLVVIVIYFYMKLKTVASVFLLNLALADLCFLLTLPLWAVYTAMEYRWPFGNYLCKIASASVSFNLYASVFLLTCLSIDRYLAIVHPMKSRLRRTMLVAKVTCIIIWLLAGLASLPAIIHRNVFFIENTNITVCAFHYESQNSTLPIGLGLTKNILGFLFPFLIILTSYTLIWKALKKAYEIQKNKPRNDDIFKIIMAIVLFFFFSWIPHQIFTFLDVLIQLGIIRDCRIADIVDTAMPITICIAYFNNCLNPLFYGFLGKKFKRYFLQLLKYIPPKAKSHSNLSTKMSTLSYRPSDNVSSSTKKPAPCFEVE
Kind of test: DiscoveRx β-arrestin2 recruitment assay (enzyme complementation, Pathunter CHO-K1 AGTR1 β-arrestin cell line). The test is classed as cell-based. The conditions noted are these: DiscoveRx β-arrestin2 recruitment; for DiscoveRx β-arrestin2 Ymax (%): maximal response. The method in brief:
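CHO-K1 cells expressing AGTR1 with β-arrestin2 enzyme-complementation reporter, plated 14-16 h ahead in 1% serum medium, then exposed to compounds for 90 min at 37° C. Chemiluminescence read after 1 h detection. EC50 (agonist) or IC50 (antagonist) from 4-parameter logistic fit; activity as percentage of All maximal effect.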

The target in test [1] is T2, hAT1R (Homo sapiens, UniProt P30556).
T2 sequence (P30556 1-359): T1 sequence (P30556 1-359)
Kind of test: cell-based. The note with it: section of the 42nd table ending at r951, example numbering restarts after the DiscoveRx section; read-out: β-arrestin2 EC50.

Test [2] deals with T2, hAT1R. Description: cell-based. The conditions noted are these: agonist mode; for EC50: read-out: BRET P63 EC50.
Test [3] deals with T2, hAT1R. Description: BRET Gq biosensor assay, agonist response, HEK293 cells. The class given is cell-based. The conditions noted are these: section of the 42nd table directly before the BRET P63 section. The method, boiled down: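 HEK293 cells co-transfected with signal-peptide-optimized hAT1R plus Gαq-Rluc, Gβ1 and GFP-Gγ1, assayed 48 h later in Tyrode's buffer pH 7.4. Coelenterazine (2 μM final) added, then compound; BRET2 (515/410 nm) read after 5 min at room temperature. EC50 by 4-parameter fit, normalized to unstimulated (0%) and maximal AngII (100%).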

For `CCCc1nc(CC)c(C(N)=O)n1Cc1ccc(-c2cc(-c3ccccc3)ccc2-c2nn[nH]n2)c(C)c1` [Example 426], the EC50 was 34.2 nM on AGTR1, 49.6 nM on hAT1R [1], above 10000 nM on hAT1R [2] and 86 nM on hAT1R [3]. Moreover, the “DiscoveRx β-arrestin2 Ymax (%)” value on AGTR1 turned out to be 52.5%.
Consider `CCOc1nc2cccc(C(=O)O)c2n1Cc1ccc(-c2cc(-c3cc(OC)ccn3)ccc2-c2nn[nH]n2)cc1` [Example 310, 2-ethoxy-1-((5′-(4-methoxypyridin-2-yl)-2′-(2H-tetrazol-5-yl)-[1,1′-biphenyl]-4-yl)methyl)-1H-benzo[d]imidazole-7-carboxylic acid], for which the EC50 at AGTR1 came out at 14.9 nM; on hAT1R [1] it was 10.9 nM; at hAT1R [2], 7.2 nM; on hAT1R [3] it was 35.3 nM. On AGTR1, the “DiscoveRx β-arrestin2 Ymax (%)” value is 51.4%. Also, at hAT1R [2], the “BRET P63 Ymax” value was 29.1%.
For the compound `CCc1nc2c(C)cc(C)nc2n1Cc1ccc(-c2cc(-c3cccc(C)c3)ccc2-c2nn[nH]n2)c(F)c1` [Example 267], the EC50 on AGTR1 amounted to 9.8 nM; at hAT1R [1] it was 8.2 nM; at hAT1R [2], 7.5 nM; at hAT1R [3], 36.6 nM. On AGTR1, the “DiscoveRx β-arrestin2 Ymax (%)” value was 62.5%. Besides, the “BRET P63 Ymax” value on hAT1R [2] is reported as 17.7%.
`CCOc1nc2cccc(C(=O)O)c2n1Cc1ccc(-c2cc(Oc3cnccc3C)ccc2-c2nn[nH]n2)cc1` [Example 337]: the EC50 on AGTR1 was 40.6 nM; at hAT1R [1], 631 nM; at hAT1R [2] it was above 10000 nM; at hAT1R [3] it was 55.8 nM. Also, the “DiscoveRx β-arrestin2 Ymax (%)” value on AGTR1 is listed as 85.6%.
The corresponding values for `CCCCc1nc(Cl)c(C(=O)O)n1Cc1ccc(-c2cc(N3CCC[C@@H](C)C3)ccc2-c2nn[nH]n2)cc1` [Example 419, (R)-2-butyl-4-chloro-1-((5′-(3-methylpiperidin-1-yl)-2′-(2H-tetrazol-5-yl)-[1,1′-biphenyl]-4-yl)methyl)-1H-imidazole-5-carboxylic acid] are 121 nM, 85.2 nM, above 10000 nM, 228 nM and 33.9%.
As to `CCCc1nc(CC)c(C(=O)O)n1Cc1ccc(-c2cc(-c3ccccc3)ccc2-c2nn[nH]n2)c(C)c1` [Example 425], the EC50 is 27.3 nM on AGTR1, 47.4 nM on hAT1R [1], above 10000 nM on hAT1R [2] and 105 nM on hAT1R [3]. Also, at AGTR1, the “DiscoveRx β-arrestin2 Ymax (%)” value was 54.2%.
Regarding `CCCCc1nc(Cl)c(C(=O)O)n1Cc1ccc(-c2cc(Oc3ccccn3)ccc2-c2nn[nH]n2)cc1` [Example 427, 2-Butyl-4-chloro-1-((5′-(pyridin-2-yloxy)-2′-(2H-tetrazol-5-yl)-[1,1′-biphenyl]-4-yl)methyl)-1H-imidazole-5-carboxylic acid], the EC50 is 89.9 nM on AGTR1, above 10000 nM on hAT1R [1], above 10000 nM on hAT1R [2] and 575 nM on hAT1R [3]. The “DiscoveRx β-arrestin2 Ymax (%)” value on AGTR1 is reported as 19.6%.
For `CCOc1nc2cccc(C(=O)O)c2n1Cc1ccc(-c2cc(N3CCC[C@H](C)C3)ccc2-c2nn[nH]n2)cc1` [Example 324], the EC50 was 17.4 nM at AGTR1, 63.2 nM on hAT1R [1], above 10000 nM at hAT1R [2] and 42.3 nM on hAT1R [3]. For the same compound, the “DiscoveRx β-arrestin2 Ymax (%)” value at AGTR1 was 55.2%.
Regarding `CCOc1nc2cccc(C(=O)O)c2n1Cc1ccc(-c2cc(Oc3ccccc3)ccc2-c2nn[nH]n2)cc1` [Example 330, 2-Ethoxy-1-((5′-phenoxy-2′-(2H-tetrazol-5-yl)-[1,1′-biphenyl]-4-yl)methyl)-1H-benzo[d]imidazole-7-carboxylic acid], the EC50 on AGTR1 is 13.2 nM; at hAT1R [1] it was 16.7 nM; on hAT1R [2], above 10000 nM; on hAT1R [3], 40.1 nM. Besides, the “DiscoveRx β-arrestin2 Ymax (%)” value at AGTR1 came out at 57.8%.
For `CCOc1nc2cccc(C(=O)O)c2n1Cc1ccc(-c2cc(-c3cnc4ccccc4c3)ccc2-c2nn[nH]n2)cc1` [Example 326, 2-ethoxy-1-((5′-(quinolin-3-yl)-2′-(2H-tetrazol-5-yl)-[1,1′-biphenyl]-4-yl)methyl)-1H-benzo[d]imidazole-7-carboxylic acid], the EC50 at AGTR1 is 9.5 nM; on hAT1R [1], 24.7 nM; on hAT1R [2] it was above 100000 nM; at hAT1R [3], 16.2 nM. Besides, the “DiscoveRx β-arrestin2 Ymax (%)” value at AGTR1 is on record as 45.9%.
The corresponding values for `CCOc1nc2cccc(C(=O)O)c2n1Cc1ccc(-c2cc(N3CCC[C@@H](C)C3)ccc2-c2nn[nH]n2)cc1` [Example 323] are 22.2 nM, 24.4 nM, above 10000 nM, above 100000 nM and 43.2%.
`CCCCc1nc(Cl)c(C(=O)O)n1Cc1ccc(-c2cc(N3CCC[C@H](C)C3)ccc2-c2nn[nH]n2)cc1` [Example 418, (S)-2-butyl-4-chloro-1-((5′-(3-methylpiperidin-1-yl)-2′-(2H-tetrazol-5-yl)-[1,1′-biphenyl]-4-yl)methyl)-1H-imidazole-5-carboxylic acid]: the EC50 at AGTR1 was 67.8 nM; on hAT1R [1], 154 nM; at hAT1R [2], above 10000 nM; at hAT1R [3], 478 nM. In addition, at AGTR1, the “DiscoveRx β-arrestin2 Ymax (%)” value is reported as 31.2%.
As to `CCOc1nc2cccc(C(=O)O)c2n1Cc1ccc(-c2cc(-c3cc(C)ccn3)ccc2-c2noc(=O)[nH]2)cc1` [Example 299, 2-ethoxy-1-((5′-(4-methylpyridin-2-yl)-2′-(5-oxo-4,5-dihydro-1,2,4-oxadiazol-3-yl)-[1,1′-biphenyl]-4-yl)methyl)-1H-benzo[d]imidazole-7-carboxylic acid], the EC50 on AGTR1 was 7.7 nM; at hAT1R [1], 4.7 nM; on hAT1R [2], 4.9 nM; at hAT1R [3], 21.3 nM. In addition, the “DiscoveRx β-arrestin2 Ymax (%)” value on AGTR1 turned out to be 83.0%. Also, the “BRET P63 Ymax” value on hAT1R [2] came out at 31.7%.
In the case of `CCc1nc2c(C)cc(C)nc2n1Cc1ccc(-c2cc(-c3ccccc3)ccc2-c2nn[nH]n2)cc1F` [Example 264, 2-ethyl-3-((3-fluoro-6′-(2H-tetrazol-5-yl)-[1,1′:3′,1″-terphenyl]-4-yl)methyl)-5,7-dimethyl-3H-imidazo[4,5-b]pyridine], the EC50 on AGTR1 turned out to be 19.2 nM; on hAT1R [1], 12.9 nM; at hAT1R [2], 7.4 nM; on hAT1R [3] it was 42.8 nM. Besides, the “DiscoveRx β-arrestin2 Ymax (%)” value on AGTR1 worked out at 52.9%. Moreover, at hAT1R [2], the “BRET P63 Ymax” value was determined as 15.7%.
For the compound `CCOc1nc2cccc(C(=O)O)c2n1Cc1ccc(-c2cc(-c3cc(OC(F)F)ccn3)ccc2-c2noc(=O)[nH]2)cc1` [Example 302], the EC50 was determined as 10.2 nM at AGTR1, 14.9 nM at hAT1R [1], 10.2 nM on hAT1R [2] and 47.3 nM at hAT1R [3]. Besides, the “DiscoveRx β-arrestin2 Ymax (%)” value at AGTR1 came to 61.1%. The “BRET P63 Ymax” value at hAT1R [2] is reported as 25.2%.
As to `CCOc1nc2cccc(C(=O)O)c2n1Cc1ccc(-c2cc(-n3ccc(C(F)(F)F)n3)ccc2-c2nn[nH]n2)cc1` [Example 338], the EC50 at AGTR1 is 17.8 nM; on hAT1R [1], 16.3 nM; on hAT1R [2] it was above 10000 nM; at hAT1R [3], 30.8 nM. In addition, the “DiscoveRx β-arrestin2 Ymax (%)” value on AGTR1 came to 68.9%.
As to `CCc1nc2c(C)cc(C)nc2n1Cc1ccc(-c2cc(-c3cccc(C)c3)ccc2-c2nn[nH]n2)cc1F` [Example 266], the EC50 is 64.3 nM on AGTR1, 5.7 nM at hAT1R [1], 5.7 nM on hAT1R [2] and 26.1 nM on hAT1R [3]. Besides, on AGTR1, the “DiscoveRx β-arrestin2 Ymax (%)” value is on record as 75.8%. The “BRET P63 Ymax” value on hAT1R [2] came to 19.1%.
Regarding `CCOc1nc2cccc(C(=O)O)c2n1Cc1ccc(-c2cc(Oc3cccc(OC)c3)ccc2-c2nn[nH]n2)cc1` [Example 332], the EC50 at AGTR1 was 24.1 nM; on hAT1R [1], 12.1 nM; on hAT1R [2], above 10000 nM; at hAT1R [3], 106 nM. Further, the “DiscoveRx β-arrestin2 Ymax (%)” value at AGTR1 worked out at 30.6%.
`CCOc1nc2cccc(C(=O)O)c2n1Cc1ccc(-c2cc(-c3cc(C)ccn3)ccc2-c2nn[nH]n2)cc1` [Example 309, 2-ethoxy-1-((5′-(4-methylpyridin-2-yl)-2′-(2H-tetrazol-5-yl)-[1,1′-biphenyl]-4-yl)methyl)-1H-benzo[d]imidazole-7-carboxylic acid]: the EC50 stood at 4.1 nM on AGTR1, 6.5 nM on hAT1R [1], 3.8 nM at hAT1R [2] and 7.9 nM at hAT1R [3]. For the same compound, the “DiscoveRx β-arrestin2 Ymax (%)” value on AGTR1 is 80.4%. At hAT1R [2], the “BRET P63 Ymax” value worked out at 28.6%.

The values above are taken from US12037324B2, “Biarylmethyl heterocycles” (Université de Montréal, priority 2016, dated 2024).
